Experimental data from patent US9708500B2, “Liquid composition, pigment dispersion liquid, and aqueous ink composition for ink jet recording” (Seiko Epson Corporation, priority 2015, dated 2017).

Experiment: distribution coefficient of water-octanol (log P), OECD Test Guideline 107
Conditions: for log P (distribution coefficient of water-octanol): OECD Test Guideline 107
Description: Here, the distribution coefficient of water-octanol, that is, a log P value represents a value which is defined by OECD Test Guideline 107. As the log P value is high, hydrophobicity is high, and as the log P value is low, hydrophilicity is high.

logP (octanol/water) | Compound | log P (distribution coefficient of water-octanol)
 | CCCC(=O)OCC(O)CO (stereo not drawn) [butyric acid 2,3-dihydroxypropyl] | −0.21
2.95 | CCCC(=O)OCC(COC(=O)CCC)OC(=O)CCC [glycerin tributyrate] | 
 | CCCCCC(=O)OCC(O)CO (stereo not drawn) [hexanoic acid 2,3-dihydroxypropyl] | 0.85
